Marks after values point to notes of the source that are not given here.
System: Meloidogyne incognita nematodes
Assay: Miniaturized greenhouse nematicidal efficacy assay (cucumber seedlings in sand, root gall rating)
[1] = 0.5 ppm, test b, average of triplicate gall ratings (scale 0-3, % root mass galled)
[2] = 1 ppm, test b, average of triplicate gall ratings (scale 0-3, % root mass galled)
[3] = 8 ppm, test b, average of triplicate gall ratings (scale 0-3, % root mass galled)
[4] = 0.5 ppm, test a, average of triplicate gall ratings (scale 0-3, % root mass galled)
[5] = 1 ppm, test a, average of triplicate gall ratings (scale 0-3, % root mass galled)
[6] = 8 ppm, test a, average of triplicate gall ratings (0=0-5%, 1=6-20%, 2=21-50%, 3=51-100% root mass galled), harvest 10 to 12 days after inoculation

Clc1cccc(C2NC(c3cccs3)=NO2)c1 (stereo not shown) [IIa-ii, 5-(3-chlorophenyl)-3-(thiophen-2-yl)-4,5-dihydro-1,2,4-oxadiazole]
8/1/0.5 ppm gall ratings* [1]: 3.00
8/1/0.5 ppm gall ratings* [2]: 2.33
8/1/0.5 ppm gall ratings* [3]: 0.33

Cc1cc(Cl)ccc1C1NC(c2ccco2)=NO1 (stereo not shown) [IIa-iii, 5-(4-chloro-2-methylphenyl)-3-(furan-2-yl)-4,5-dihydro-1,2,4-oxadiazole]
8/1/0.5 ppm gall ratings* [1]: 2.33
8/1/0.5 ppm gall ratings* [2]: 1.67
8/1/0.5 ppm gall ratings* [3]: 0.00

c1ccc(C2=NOC(c3cccs3)N2)cc1 (stereo not shown) [Ia-i, 3-phenyl-5-(thiophen-2-yl)-4,5-dihydro-1,2,4-oxadiazole]
8/1/0.5 ppm gall ratings* [4]: 2.33
8/1/0.5 ppm gall ratings* [1]: 2.67
8/1/0.5 ppm gall ratings* [5]: 1.33
8/1/0.5 ppm gall ratings* [2]: 1.67
8/1/0.5 ppm gall ratings* [6]: 0.00
8/1/0.5 ppm gall ratings* [3]: 0.00

c1ccc(C2=NOC(c3ccco3)N2)cc1 (stereo not shown) [Ia-ii, 5-(furan-2-yl)-3-phenyl-4,5-dihydro-1,2,4-oxadiazole]
8/1/0.5 ppm gall ratings* [4]: 2.67
8/1/0.5 ppm gall ratings* [1]: 2.33
8/1/0.5 ppm gall ratings* [5]: 2.00
8/1/0.5 ppm gall ratings* [2]: 0.67
8/1/0.5 ppm gall ratings* [6]: 0.00
8/1/0.5 ppm gall ratings* [3]: 0.00

Clc1ccc(C2=NOC(c3ccco3)N2)cc1 (stereo not shown) [Ia-iii, 3-(4-chlorophenyl)-5-(furan-2-yl)-4,5-dihydro-1,2,4-oxadiazole]
8/1/0.5 ppm gall ratings* [1]: 3.00
8/1/0.5 ppm gall ratings* [2]: 1.67
8/1/0.5 ppm gall ratings* [3]: 0.00

Cc1cc(Cl)ccc1C1=NOC(c2ccco2)N1 (stereo not shown) [Ia-iv, 3-(4-chloro-2-methylphenyl)-5-(furan-2-yl)-4,5-dihydro-1,2,4-oxadiazole]
8/1/0.5 ppm gall ratings* [1]: 2.67
8/1/0.5 ppm gall ratings* [2]: 1.67
8/1/0.5 ppm gall ratings* [3]: 0.00

Clc1ccc(C2=NOC(c3ccco3)N2)c(Cl)c1 (stereo not shown) [Ia-ix, 3-(2,4-dichlorophenyl)-5-(furan-2-yl)-4,5-dihydro-1,2,4-oxadiazole]
8/1/0.5 ppm gall ratings* [1]: 3.00
8/1/0.5 ppm gall ratings* [2]: 2.33
8/1/0.5 ppm gall ratings* [3]: 0.00

Fc1ccc(C2=NOC(c3cccs3)N2)cc1 (stereo not shown) [Ia-v, 3-(4-fluorophenyl)-5-(thiophen-2-yl)-4,5-dihydro-1,2,4-oxadiazole]
8/1/0.5 ppm gall ratings* [1]: 1.67
8/1/0.5 ppm gall ratings* [2]: 0.00
8/1/0.5 ppm gall ratings* [3]: 0.00

Clc1ccc(C2=NOC(c3ccoc3)N2)cc1 (stereo not shown) [Ib-iv, 3-(4-chlorophenyl)-5-(furan-3-yl)-4,5-dihydro-1,2,4-oxadiazole]
8/1/0.5 ppm gall ratings* [1]: 2.67
8/1/0.5 ppm gall ratings* [2]: 1.33
8/1/0.5 ppm gall ratings* [3]: 0.00

Abamectin [reference compound]
8/1/0.5 ppm gall ratings* [5]: 1.67^a

— patent publication US9232800B2
